Values joined by “and” are separate entries in the source; they are usually repeats but may differ in a detail not shown here. Identical values can stand only once. Active and inactive are the calls of the source.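 Rule for the calls: active = compounds giving half or more protection of infected cells from virus-caused growth loss, again on retest; inactive = the rest.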
System: CEM cells HIV-1 protection, formazan growth assay
Assay: NCI AIDS Antiviral Assay
Details: for IC50: measured here: growth of uninfected CEM cells
Summary of the method: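 Screen of anti-HIV-1 activity in human CEM cells using a formazan-based growth measurement at five drug concentrations. Hits with 50% or greater protection were repeated, and confirmation required reproducible complete protection.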

SMILES	outcome	EC50	IC50
Fc1ccc(-c2sc(-c3cccs3)cc2Cc2cccs2)cc1	inactive		
COC1C=CC(O)C(CO)O1 (stereo not drawn)	inactive		
BrCCC[P+](c1ccccc1)(c1ccccc1)c1ccccc1		> 20 µM	0.912 µM
CCOC(=O)NC1CN2CCC1CC2 (stereo not drawn)		> 200 µM	> 200 µM
NN1C(=O)C(CCO)S/C1=N/N=C1/SC(CCO)C(=O)N1N (stereo not drawn)		> 74.1 µM	> 74.1 µM
CC(C)=CCOc1cc(NC(=S)c2ccsc2C)ccc1Cl		0.0417 µM	15.8 µM
COc1cccc(/S(C)=N/S(=O)(=O)c2ccc(C)cc2)c1 (stereo not drawn)		> 776 µM	214 µM
COC(=O)[C@@H](O)[C@]1(C(=O)OC)C2O[C@@H](OC)[C@@H]1CCCCCC[C@H]2O		> 200 µM	> 200 µM
COc1ccc(-c2oc(C=Nc3ccccc3)c([N+](=O)[O-])c2-c2ccc(OC)c(OC)c2)cc1OC		> 45.7 µM	> 45.7 µM
S=c1nn[nH]c2ccccc12		> 219 µM	> 219 µM
COc1ccc(C2S/C(=C\c3cccc([N+](=O)[O-])c3)C(=O)N2NC(=O)Cc2ccccc2)cc1 (stereo not drawn)		> 39.8 µM	> 39.8 µM
O=c1oc2ccc([N+](=O)[O-])cc2cc1Br		> 145 µM	> 145 µM
CCCCCCCCCCCSSCCCCCCCCCCC		> 200 µM	> 200 µM
Cc1ncc2c(n1)NC(=O)NC2		> 83.2 µM	> 83.2 µM
CN1C(c2ccccc2)=C(C#N)C(=O)CC(c2cccs2)N1C (stereo not drawn)		> 200 µM	191 µM
CCOC(=O)c1sc(SC)nc1NC(=O)c1ccccc1		> 200 µM	> 200 µM
CC(=O)C(SSC(C(C)=O)C(C)=O)C(C)=O		> 200 µM	8.51 µM
CCOP(=O)(OCC)C(Cc1cn(S(=O)(=O)c2ccc(C)cc2)cn1)C(=O)O (stereo not drawn)		> 200 µM	> 200 µM
Cc1cc(=O)oc2c1cc(OCC(=O)OCCN1CCCCC1)c1occ(C)c12	inactive		
Cn1cc(NC(=O)Nc2cc(C(=O)Nc3cc(C(=O)Nc4ccc(P(=O)(O)O)c5cc(P(=O)(O)O)ccc45)n(C)c3)n(C)c2)cc1C(=O)Nc1cc(C(=O)Nc2ccc(P(=O)(O)O)c3cc(P(=O)(O)O)ccc23)n(C)c1		> 49 µM	31.6 µM
C[C@]12CC(O)C3[C@@H](CC=C4CC(O)CC[C@@]43C)C1CCC2O (stereo partly drawn)	inactive		
CCCCCCCCCCCCOCCOCCOCCOCCOCCOCC(=O)NC(Cc1ccccc1)C(=O)Oc1ccc([N+](=O)[O-])cc1 (stereo not drawn)		> 200 µM	17.8 µM

SMILES	outcome	EC50	IC50
O=C(O)c1cc(O)cc(O)c1N=Nc1ccc(/C=C/c2ccc(N=Nc3c(O)cc(O)cc3C(=O)O)cc2)cc1		70.8 µM and 25.1 µM	132 µM and > 100 µM
CCCCOC(=O)OC1CCC2(C)CC3C=CC2(OO3)C1(C)C (stereo not drawn)		> 20 µM	4.27 µM
CC(C)(Oc1ccc(C2C[C@H]2Cl)cc1)C(=O)O (stereo partly drawn)		> 200 µM	> 200 µM
Cc1n[nH]c(=O)n1C1CC1		> 200 µM	> 200 µM
CC1=C2C(=O)c3ccccc3C2=C(C)S(=O)(=O)O1		> 955 µM	832 µM
COC(=O)c1ncn(C2CCCCC2)c1O		> 200 µM	> 200 µM
COC(=O)C1(CCSc2ccccc2)CCCC1=O (stereo not drawn)		> 13.5 µM	> 13.5 µM
O=C(N/N=C/c1ccccn1)c1ccccc1[O-].O=C(N/N=C/c1ccccn1)c1ccccc1[O-].[Mn+2]		> 200 µM	11.2 µM
COc1ccc(NC(=S)N/N=C(/C)c2ccccn2)cc1		> 0.2 µM	0.115 µM
COc1cc(OC)c(C(=O)/C=C/c2ccc(OC)c(OC)c2)c(OC)c1	inactive		
COc1ccc2c(=O)c(S)coc2c1		> 200 µM	30.2 µM
Nc1nc(NNc2ccccc2F)cc(=O)[nH]1		> 200 µM	28.2 µM
CC1=Nc2ccccc2N=C(c2c(O)c3ccc4ccccc4c3oc2=O)C1		> 200 µM	49 µM
CN(C)c1nc2oc(-c3ccccc3)c(-c3ccccc3)c2c2nnnn12	inactive		
Cc1cc2c(C)cc(=O)[nH]c2cc1N		> 200 µM	> 200 µM
O=C1CCCC(=O)C1=C(O)CCCCCCCCCCc1ccccc1		> 38 µM	> 38 µM
Nc1ncnc2c1ncn2C1CC(OC2CCCCO2)C(CO)O1 (stereo not drawn)		> 200 µM	> 200 µM
COC(=O)c1ccccc1C1CN=NC12Cc1cc3c(cc1C2=O)CCC3 (stereo not drawn)	inactive		
O=C1CCC2=C(CCCC2=O)N1		> 200 µM	> 200 µM
S=P1(c2ccccc2)Nc2ccc(Cl)cc2N1 (stereo not drawn)		> 468 µM	9.12 µM
COc1ccc(NS(=O)(=O)c2ccc3ncn(NS(=O)(=O)c4ccc(I)cc4)c(=O)c3c2)cc1	inactive		

Source: PubChem BioAssay AID179 (DTP/NCI, 2004)
